Data as given in patent EP1420008B1, “Composition, in particular cosmetic, comprising a secondary or tertiary amine” (L'ORÉAL, priority 2002, dated 2004).

Columns and labels:
[1] = system: jonction nerf / muscle (plaque motrice); test: Nerve/muscle junction model (motor end plate): isolated rat phrenic nerve / diaphragm preparation, contractions induced by indirect stimulation; settings: for inhibition at 100 µM: Rattus norvegicus, concentration 10^-4 M, contractions induced by stimulation of the phrenic nerve (0.1 à 0.5 volts, 0.3 ms, 0.1 Hz), read-out: % INHIBITION DES CONTRACTIONS
Experimental: Le composé 1 a été testé sur un modèle de jonction nerf / muscle (plaque motrice) obtenu dans une préparation nerf phrénique / diaphragme isolé de rat (muscle strié) (Pollard B.J. et al, Br.J. Anaesth., 1988, 61, 419-424).
(§1) Ce test est prédictif d'un effet anti-rides, comme cela a été vérifié par la Demanderesse sur le diazépam, qui est à la fois actif in vivo chez l'homme et dans ce test à 10^-4 M.
Le nerf phrénique et le diaphragme sont soigneusement isolés et placés dans une cuve de 50 ml remplie de liquide de survie (liquide de Krebs Henseleit) maintenu à une température de 37°C et oxygéné à l'aide d'un mélange oxygène/CO2 (95/5).
Les variations de tension du diaphragme sont enregistrées avec une pré-charge initiale de plusieurs grammes.
Après une période de relaxation de 30 mn, le diaphragme est stimulé indirectement par l'intermédiaire du nerf phrénique.
Sur chaque préparation, l'effet du composé à tester a été évalué sur les contractions induites par stimulation indirecte via stimulation sur le nerf phrénique (0.1 à 0.5 volts, 0.3 ms, 0.1 Hz). L'alvérine, connue comme composé myorelaxant à effet anti-rides d'après la demande FR-2 798 590, est utilisée comme témoin.

[2] = biological target: canaux calciques de type L, site vérapamil (Rattus norvegicus, UniProt P22002); test: Calcium channel test: competitive inhibition of [3H](-) D 888 binding, rat cerebral cortex homogenates
Chain of canaux calciques de type L, site vérapamil (P22002 whole entry): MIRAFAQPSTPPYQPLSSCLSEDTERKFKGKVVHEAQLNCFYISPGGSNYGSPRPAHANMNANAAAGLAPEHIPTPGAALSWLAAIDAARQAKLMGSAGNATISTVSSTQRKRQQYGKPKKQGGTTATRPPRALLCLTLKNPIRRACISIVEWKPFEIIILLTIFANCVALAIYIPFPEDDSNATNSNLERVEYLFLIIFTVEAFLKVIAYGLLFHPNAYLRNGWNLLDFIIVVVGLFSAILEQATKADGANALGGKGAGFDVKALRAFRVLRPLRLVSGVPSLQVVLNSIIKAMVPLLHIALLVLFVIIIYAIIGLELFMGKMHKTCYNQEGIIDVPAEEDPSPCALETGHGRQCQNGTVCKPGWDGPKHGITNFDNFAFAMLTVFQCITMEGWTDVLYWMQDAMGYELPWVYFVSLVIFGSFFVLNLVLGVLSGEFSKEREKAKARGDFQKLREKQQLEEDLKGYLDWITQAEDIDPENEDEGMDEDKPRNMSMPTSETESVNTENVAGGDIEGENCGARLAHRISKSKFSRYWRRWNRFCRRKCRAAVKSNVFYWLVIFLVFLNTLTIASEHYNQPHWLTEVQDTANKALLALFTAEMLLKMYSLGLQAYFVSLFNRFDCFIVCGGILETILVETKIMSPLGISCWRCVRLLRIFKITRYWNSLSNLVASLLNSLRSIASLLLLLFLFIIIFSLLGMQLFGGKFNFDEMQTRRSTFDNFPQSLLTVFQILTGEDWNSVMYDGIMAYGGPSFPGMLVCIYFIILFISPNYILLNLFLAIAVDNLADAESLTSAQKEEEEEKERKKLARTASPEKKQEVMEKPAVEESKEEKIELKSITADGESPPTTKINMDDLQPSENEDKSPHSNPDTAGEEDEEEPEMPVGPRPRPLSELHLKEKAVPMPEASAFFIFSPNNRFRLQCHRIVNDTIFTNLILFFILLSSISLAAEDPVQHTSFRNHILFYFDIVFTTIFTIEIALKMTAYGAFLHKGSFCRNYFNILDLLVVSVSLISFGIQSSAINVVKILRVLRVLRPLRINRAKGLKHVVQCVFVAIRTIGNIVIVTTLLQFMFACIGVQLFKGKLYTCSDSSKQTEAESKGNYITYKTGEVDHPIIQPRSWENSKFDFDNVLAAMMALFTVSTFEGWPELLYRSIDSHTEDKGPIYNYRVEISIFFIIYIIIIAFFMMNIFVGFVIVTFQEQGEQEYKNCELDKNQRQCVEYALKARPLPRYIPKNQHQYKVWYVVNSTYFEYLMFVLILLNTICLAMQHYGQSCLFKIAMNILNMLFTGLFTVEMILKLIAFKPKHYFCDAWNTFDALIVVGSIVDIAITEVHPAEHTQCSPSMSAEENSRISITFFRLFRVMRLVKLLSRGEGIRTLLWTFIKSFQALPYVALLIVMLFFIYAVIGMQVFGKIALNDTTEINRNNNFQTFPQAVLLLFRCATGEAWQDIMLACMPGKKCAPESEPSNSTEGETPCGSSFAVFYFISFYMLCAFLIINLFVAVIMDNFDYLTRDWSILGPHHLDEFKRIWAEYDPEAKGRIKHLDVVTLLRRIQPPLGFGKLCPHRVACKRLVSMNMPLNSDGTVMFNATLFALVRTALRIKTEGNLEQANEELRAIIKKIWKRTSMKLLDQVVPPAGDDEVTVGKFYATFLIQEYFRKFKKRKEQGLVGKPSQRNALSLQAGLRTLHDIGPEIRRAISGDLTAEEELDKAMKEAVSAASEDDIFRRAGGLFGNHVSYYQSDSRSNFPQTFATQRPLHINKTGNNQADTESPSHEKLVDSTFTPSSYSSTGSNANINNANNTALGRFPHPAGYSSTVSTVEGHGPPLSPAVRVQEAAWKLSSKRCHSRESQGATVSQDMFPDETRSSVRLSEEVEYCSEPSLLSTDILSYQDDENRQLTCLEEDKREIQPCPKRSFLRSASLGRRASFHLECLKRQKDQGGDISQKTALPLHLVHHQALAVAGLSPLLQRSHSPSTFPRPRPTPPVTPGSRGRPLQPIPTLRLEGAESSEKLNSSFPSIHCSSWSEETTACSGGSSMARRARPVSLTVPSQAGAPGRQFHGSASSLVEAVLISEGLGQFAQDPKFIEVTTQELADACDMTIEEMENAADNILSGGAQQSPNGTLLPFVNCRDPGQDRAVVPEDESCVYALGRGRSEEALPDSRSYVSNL
Text: Le test mesure la capacité d'un produit à inhiber par compétition la fixation d'[…] de canaux calciques de type L, type Vérapamil. Ces canaux ont été identifiés au niveau des fibroblastes humains (Baumgarten LB and coll (1992), J. Biol. Chem, 267, 10524-10530 et Chen CF and coll (1988), Science, 239, 1024-1026).
Les études sont réalisées à partir d'homogénats de cortex cérébral de rat (membranes isolées présentant à leur surface notamment les canaux calciques de type L).
Les conditions expérimentales selon le protocole décrit par Reynolds I.J. et al., 1986, J. Pharmacol. Exp. Ther., 237, p.731, sont présentées dans le tableau 1 ci-dessous : Tableau 1
D888 et D600 sont les molécules de référence spécifiques des canaux calciques de type L, site vérapamil.
La liaison spécifique d'un ligand (D888 marqué) aux récepteurs (canaux calciques de type L, site vérapamil) est défini comme la différence entre la liaison totale et la liaison non spécifique déterminée en présence d'un excès de ligand non radioactif. Les résultats sont exprimés en pourcentage de liaison spécifique témoin et en pourcentage d'inhibition de cette liaison en présence des composés testés.
Les valeurs d'IC50 (concentration inhibant 50% de la liaison spécifique témoin) et du coefficient de Hill (nH) sont calculées pour les composés testés à partir des courbes de compétition selon un modèle de régression non linéaire. […]

[3] = Anti-wrinkle effect in vivo in man (verification of the predictive value of the nerve/muscle test); settings: in vivo chez l'homme
Text: as §1

Row | Structure (SMILES) | inhibition at 100 µM [1] [%] | calcium channel inhibition compared with alvérine ([2]; conclusion from the IC50 values of Tableau 2) | activity in the nerve/muscle junction test ([1]; 10^-4 M) | activity in vivo (anti-wrinkle effect) [3] | IC50 ([2]; ligand [^3H](-) D 888 0.5 nM, non-specific D 600 (10 µM), 60 min. /22°C, measured in duplicate) [nM]
1 | CCCCCC(O)(CCCCC)CCN(CC)CCCc1ccccc1 [Composé 1, 6-[2-{ethyl-(3-phenyl-propyl)amino}-ethyl]-undecan-6-ol] | 100 | meilleur inhibiteur de canaux calciques que l'alvérine | – | – | –
2 | CN1C(=O)CN=C(c2ccccc2)c2cc(Cl)ccc21 [diazépam] | – | – | actif | actif | –
3 | CCN(CCCc1ccccc1)CCCc1ccccc1 [Alvérine] | 100 | – | – | – | 693
